Patent US8609620B2, “Neuregulin peptides and their use” (Zensun (Shanghai) Science & Technology Ltd., priority 2008, dated 2013)

How the values were obtained:
[1] = test system: AKT phosphorylation in cardiomyocytes; experiment: Effect of neuregulin peptides on the phosphorylation of AKT in cardiomyocytes (western blot); type: cell-based, rat; conditions: cardiac cells from left ventricles of neonatal rats, different concentrations, 20 minutes, FIG. 1
Procedure: To study the effect of synthesized peptides on ErbB2 and ErbB4 signaling in cardiomyocytes, cardiac cells extracted from left ventricles of neonatal rats were used.
Cardiac cells were grown in media with serum for 2 days. After the cells reached about 80% confluence, the media was changed to serum free media. After another 24 hours, different amounts of synthesized neuregulin peptides or neuregulin were added into separate wells containing the cells for 20 minutes. The media was then aspirated and gel loading buffer was added to lyse the cells. The sample was then harvested and loaded into a separate well of gel for electrophoresis and western blot analysis.

[2] = target: T1, ErbB2 receptor (Homo sapiens, UniProt P04626+P21860); experiment: Receptor binding: neuregulin-induced ErbB2 phosphorylation in MCF-7 cells (ErbB2 antibody H4 capture, anti-phosphotyrosine ELISA); type: cell-based; conditions: 20 min at 37° C., concentration achieving 50% of maximum OD value at 450 nm
T1 construct: endogenous in cells; host or cells: MCF-7
Description: Briefly, the assay measures neuregulin induced ErbB2 activation and phosphorylation on the adherent breast carcinoma cell line, MCF-7. Membrane proteins are solubilized via Triton X-100 lysis and the receptor is captured in ELISA wells coated with ErbB2-specific antibodies (e.g., H4) with no cross-reaction to ErbB3 or ErbB4. The degree of receptor phosphorylation is then quantified by antiphosphotyrosine ELISA.
MCF-7 cells was harvested, counted, pelleted and resuspended into DMEM (with 10% serum and 9 μg/ml insulin) at 5×10^4 cells/ml. 100 μl cell suspension was added to each well of 96 well plate and the plate was incubated at 37° C. overnight. The cells were then washed 3 times with PBS and grew in serum free DMEM for another 24 hours.
ErbB2 antibody H4 (Zensun, anti-ErbB2 monoclonal antibody) was diluted to 6 μg/ml by coating buffer (50 mM Na2CO3—NaHCO3, pH9.6), and added to 96 well plate 50 μl/well. The plate was left at 4° C. overnight to coat with antibody.
DMEM was added to two wells as blank. The plate was incubated at 37° C. for 20 min. The cells were washed once with PBS before adding 100 μl/well lysis buffer (50 mM Hepes, pH 8.0, 150 mM NaCl, 2 mM sodium orthovanadate, 0.01% thimerosal, 1% Triton X-100 and one protease inhibitor cocktail tablet per 25 ml solution) and lysing at 4° C. for 30 min. […]

| EC50 [2] | Molecule | effect on AKT phosphorylation compared with NRG [1] |
| --- | --- | --- |
|  | CSCC[C@@H]1NC(=O)[C@H](Cc2ccccc2)NC(=O)[C@@H]2CSSC[C@H](NC(=O)[C@H](CCCCN)NC(=O)[C@@H](NC(=O)[C@H](CC(C)C)NC(=O)[C@H](Cc3c[nH]cn3)NC(=O)[C@@H](N)CO)C(C)C)C(=O)N[C@@H](C)C(=O)N[C@@H](CCC(=O)O)C(=O)N[C@@H](CCCCN)C(=O)N[C@@H](CCC(=O)O)C(=O)N[C@@H](CCCCN)C(=O)N[C@@H]([C@@H](C)O)C(=O)N[C@@H](Cc3ccccc3)C(=O)N[C@@H](CSSC[C@@H](C(=O)N[C@@H](CCCCN)C(=O)N[C@H]3CSSC[C@@H](C(=O)N[C@@H](CCC(N)=O)C(=O)N[C@@H](CC(N)=O)C(=O)N[C@@H](Cc4ccc(O)cc4)C(=O)N[C@H](C(=O)N[C@@H](CCSC)C(=O)N[C@@H](C)C(=O)N[C@@H](CO)C(=O)N[C@@H](Cc4ccccc4)C(=O)N[C@@H](Cc4ccc(O)cc4)C(=O)N[C@@H](CCCCN)C(=O)N[C@@H](C)C(=O)N[C@@H](CCC(=O)O)C(=O)N[C@@H](CCC(=O)O)C(=O)N[C@@H](CC(C)C)C(=O)O)C(C)C)NC(=O)[C@H](CCCNC(=N)N)NC(=O)[C@H](CC(=O)O)NC(=O)CNC(=O)[C@H]([C@@H](C)O)NC(=O)[C@H](Cc4ccccc4)NC(=O)[C@H](CCC(=O)O)NC(=O)[C@H](CC(N)=O)NC(=O)[C@@H]4CCCN4C3=O)NC(=O)[C@H](CC(C)C)NC(=O)[C@H](Cc3ccc(O)cc3)NC(=O)[C@H](CCCNC(=N)N)NC(=O)[C@H](CO)NC(=O)[C@@H]3CCCN3C(=O)[C@H](CC(N)=O)NC(=O)[C@H](CO)NC(=O)[C@H](CC(C)C)NC(=O)[C@H](CC(=O)O)NC(=O)[C@H](CCCCN)NC(=O)[C@H](C(C)C)NC1=O)C(=O)N[C@@H](C(C)C)C(=O)N[C@@H](CC(N)=O)C(=O)NCC(=O)NCC(=O)N[C@@H](CCC(=O)O)C(=O)N2 [NRG59] | almost have the same effect as NRG |
|  | CSCC[C@@H]1NC(=O)[C@H](Cc2ccccc2)NC(=O)[C@@H]2CSSC[C@H](NC(=O)[C@H](CCCCN)NC(=O)[C@@H](NC(=O)[C@H](CC(C)C)NC(=O)[C@H](Cc3c[nH]cn3)NC(=O)[C@@H](N)CO)C(C)C)C(=O)N[C@@H](C)C(=O)N[C@@H](CCC(=O)O)C(=O)N[C@@H](CCCCN)C(=O)N[C@@H](CCC(=O)O)C(=O)N[C@@H](CCCCN)C(=O)N[C@@H]([C@@H](C)O)C(=O)N[C@@H](Cc3ccccc3)C(=O)N[C@@H](CSSC[C@@H](C(=O)N[C@@H](CCCCN)C(=O)N[C@H]3CSSC[C@@H](C(=O)N[C@@H](CCC(N)=O)C(=O)N[C@@H](CC(N)=O)C(=O)N[C@@H](Cc4ccc(O)cc4)C(=O)N[C@H](C(=O)N[C@@H](CCSC)C(=O)N[C@@H](C)C(=O)N[C@@H](CO)C(=O)N[C@@H](Cc4ccccc4)C(=O)N[C@@H](Cc4ccc(O)cc4)C(=O)N[C@@H](CCCCN)C(=O)N[C@@H](C)C(=O)N[C@@H](CCC(=O)O)C(=O)O)C(C)C)NC(=O)[C@H](CCCNC(=N)N)NC(=O)[C@H](CC(=O)O)NC(=O)CNC(=O)[C@H]([C@@H](C)O)NC(=O)[C@H](Cc4ccccc4)NC(=O)[C@H](CCC(=O)O)NC(=O)[C@H](CC(N)=O)NC(=O)[C@@H]4CCCN4C3=O)NC(=O)[C@H](CC(C)C)NC(=O)[C@H](Cc3ccc(O)cc3)NC(=O)[C@H](CCCNC(=N)N)NC(=O)[C@H](CO)NC(=O)[C@@H]3CCCN3C(=O)[C@H](CC(N)=O)NC(=O)[C@H](CO)NC(=O)[C@H](CC(C)C)NC(=O)[C@H](CC(=O)O)NC(=O)[C@H](CCCCN)NC(=O)[C@H](C(C)C)NC1=O)C(=O)N[C@@H](C(C)C)C(=O)N[C@@H](CC(N)=O)C(=O)NCC(=O)NCC(=O)N[C@@H](CCC(=O)O)C(=O)N2 [NRG57] | almost have the same effect as NRG |
|  | CSCC[C@@H]1NC(=O)[C@H](Cc2ccccc2)NC(=O)[C@@H]2CSSC[C@H](NC(=O)[C@H](CCCCN)NC(=O)[C@@H](NC(=O)[C@H](CC(C)C)NC(=O)[C@H](Cc3c[nH]cn3)NC(=O)[C@@H](N)CO)C(C)C)C(=O)N[C@@H](C)C(=O)N[C@@H](CCC(=O)O)C(=O)N[C@@H](CCCCN)C(=O)N[C@@H](CCC(=O)O)C(=O)N[C@@H](CCCCN)C(=O)N[C@@H]([C@@H](C)O)C(=O)N[C@@H](Cc3ccccc3)C(=O)N[C@@H](CSSC[C@@H](C(=O)N[C@@H](CCCCN)C(=O)N[C@H]3CSSC[C@@H](C(=O)N[C@@H](CCC(N)=O)C(=O)N[C@@H](CC(N)=O)C(=O)N[C@@H](Cc4ccc(O)cc4)C(=O)N[C@H](C(=O)N[C@@H](CCSC)C(=O)N[C@@H](C)C(=O)N[C@@H](CO)C(=O)N[C@@H](Cc4ccccc4)C(=O)N[C@@H](Cc4ccc(O)cc4)C(=O)N[C@@H](CCCCN)C(=O)O)C(C)C)NC(=O)[C@H](CCCNC(=N)N)NC(=O)[C@H](CC(=O)O)NC(=O)CNC(=O)[C@H]([C@@H](C)O)NC(=O)[C@H](Cc4ccccc4)NC(=O)[C@H](CCC(=O)O)NC(=O)[C@H](CC(N)=O)NC(=O)[C@@H]4CCCN4C3=O)NC(=O)[C@H](CC(C)C)NC(=O)[C@H](Cc3ccc(O)cc3)NC(=O)[C@H](CCCNC(=N)N)NC(=O)[C@H](CO)NC(=O)[C@@H]3CCCN3C(=O)[C@H](CC(N)=O)NC(=O)[C@H](CO)NC(=O)[C@H](CC(C)C)NC(=O)[C@H](CC(=O)O)NC(=O)[C@H](CCCCN)NC(=O)[C@H](C(C)C)NC1=O)C(=O)N[C@@H](C(C)C)C(=O)N[C@@H](CC(N)=O)C(=O)NCC(=O)NCC(=O)N[C@@H](CCC(=O)O)C(=O)N2 [NRG55] | much stronger effect than NRG |
| 1.439 µg/mL | SHLVKCAEKEKTFCVNGGECFMVKDLSNPSRYLCKCPNEFTGDRCQNYVMASFYKAEELYQ (protein, chains of the parent or of the whole protein) SHLVKCAEKEKTFCVNGGECFMVKDLSNPSRYLCKCPNEFTGDRCQNYVMASFYKAEELYQ |  |
| 0.2772 µg/mL | NRG: full length wild type neuregulin β2 peptide (protein) SHLVKCAEKEKTFCVNGGECFMVKDLSNPSRYLCKCPNEFTGDRCQNYVMASFYKAEELYQ |  |
